Data from patent publication US20240148757A1, “USE OF DIHYDROOROTATE DEHYDROGENASE (DHODH) INHIBITORS TO TARGET FERROPTOSIS IN CANCER THERAPY” (BOARD OF REGENTS, THE UNIVERSITY OF TEXAS SYSTEM, priority 2021, published 2024).

Tests used:
[1] = tested on: NCI-H226 cells; test: Intracellular metabolite levels upon supplementation; type: in vitro ADME, human; conditions: for intracellular levels upon supplementation: 100 μM, 48 hours
Procedure: (§1) Metabolomic analysis was performed as previously described (Liu, X., et al., Nat Cell Biol 22, 476-486 (2020)). Cells were seeded on 35 mm culture plates at a density sufficient to ensure approximately 70-80% confluence at the time of extraction. For metabolic tracer analysis of pyrimidine synthesis, HT-1080 cells were treated with RSL3 and/or Lip-1 for 2 hours and then were shifted to drug-free media containing amide-^15N-glutamine (this time point is defined as 0 hour). Metabolites were extracted at the indicated time points for subsequent analyses. Metabolites were extracted by rapidly aspirating the culture medium and then adding 0.6 mL of an 80% methanol: 20% water mixture at dry ice temperature. The plates were incubated on dry ice for 15 minutes before the cell material was scraped into eppendorf tubes pre-chilled on ice. The cell debris was pelleted by centrifugation at 13,000 RCF for 5 minutes at 4° C. and the supernatant was transferred to a fresh tube and stored on dry ice until analysis. Just prior to analysis, 500 μL of extract was dried under nitrogen gas flow and then resuspended in 100 μL water.
(§2) The complete platform consists of an Accela 1250 HPLC system, Accela Open Autosampler, MayLab Mistraswitch column oven and Exactive orbitrap mass spectrometer, controlled by the Xcalibur 3.0.63 software package. Chromatography was performed with a Phenomenex Synergi Hydro-RP column (100×2 mm, 2.5 μm particle size). Solvent A is 10 mM tributylamine and […] acetic acid in water; Solvent B is methanol. The gradient is: 0 min, 0% B; 2.5 min, 0% B; 5 min, 20% B; 7.5 min, 20% B; 13 min, 55% B; 15.5 min, 95% B; 18.5 min, 95% B; 19 min, 0% B; 25 min, 0% B. The injection volume was 10 μL. The column temperature was set to 40° C., and the flow rate was 200 μL/min. The Exactive was operated in negative ionization mode with an electrospray ionization interface. The instrument parameters are as follows: sheath gas flow rate 30 (arbitrary units), aux gas flow rate 10 (arbitrary units), sweep gas flow rate 3 (arbitrary units), spray voltage 3 kV, capillary temperature 325° C., capillary voltage −25 V, tube lens voltage −50 V. The scan range was set to 80-1000 m/z, with a maximum inject time of 250 ms, resolution of 100,000 at 1 Hz, and AGC (automatic gain control) target 1E6. The data were analyzed using the MAVEN software suite57 with signal intensity determined as the Peak Area (Top). For metabolic labeling experiments, the data were corrected to account for the natural abundance of nitrogen-15 using IsoCorrectoR (Heinrich, P., et al., Sci Rep 8, 17910 (2018)).

[2] = tested on: GPX4^low NCI-H226 cells; test: Cell viability / cell death (ferroptosis) in NCI-H226 cells; type: cell-based, human; conditions: pretreatment 48 hours (C-Asp, DHO, OA 100 μM; uridine 50 μM), RSL3 4 hours
Procedure: (§3) Viable cells were measured using Cell Counting Kit-8 (CCK-8, Dojindo) as previously described (Koppula, P., Zhang, Y., Shi, J., Li, W. & Gan, B, J Biol Chem 292, 14240-14249 (2017); Liu, X. & Gan, B, Cell Cycle 15, 3471-3481 (2016)). Briefly, cells were seeded onto 96-well plates at a density of 2×10^4 per well. The next day, cells were treated with GPX4 or DHODH inhibitors for 4 hours. Subsequently, cells exposed to 10 μl CCK-8 reagent (100 μl medium per well) for 1 hour at 37° C., 5% CO2 in an incubator. The absorbance at a wavelength of 450 nm was determined using a FLUOstar Omega microplate reader (BMG Labtech).
(§4) Cell death was measured by propidium iodide (Roche) staining using a flow cytometer, as previously described (Dai, F., et al., Proc Natl Acad Sci USA 114, 3192-3197 (2017); Zhang, Y., et al., Cancer Res 80, 2243-2256 (2020)). For propidium iodide-staining, cells were seeded at a density of 50% confluence into 12-well plates. The next day, cells were treated with different reagents. To measure cell death, the cells were collected (including floating dead cells), stained with 5 μg/ml propidium iodide and the percentage of the propidium iodide-positive dead cell population was analyzed using the flow cytometer BD Accuri C6 (BD Biosciences) and an FL2 detector. A minimum of 10,000 single cells were analyzed per well and all experiments were carried out at least in triplicate.

[3] = tested on: GPX4^high and GPX4^low cancer cell lines; test: Cell viability in panel of GPX4^high and GPX4^low cancer cell lines; type: cell-based, human; conditions: supplementation 100 μM 48 hours, RSL3 4 hours
Procedure: as §3

[4] = tested on: multiple cancer cell lines; test: Global metabolomic analysis; type: cell-based, human; conditions: short-term (2-hour) treatment, 10 μM
Procedure: as §1, §2

[5] = tested on: DHODH KO HT-1080 cells; test: Cell viability / cell death (ferroptosis) in DHODH KO HT-1080 cells; type: cell-based, human; conditions: for protection against GPX4 inhibition (RSL3 or ML162)-induced ferroptosis: DHODH KO, pretreatment 10 μM, 24 hours
Procedure: Knockout of DHODH, ACSL4 and COQ2 in human cell lines was performed using single guide RNAs (sgRNAs) and doxycycline (DOX)-inducible CRISPR-Cas9 expression system as described in our recent publication (Lee, H., et al., Nature cell biology 22, 225-234 (2020)). sgRNAs were cloned into the lentiviral lentiGuide vector. LentiGuide clones were transfected into HEK293T cells with psPAX2 packaging plasmid and pMD2.G expressing plasmid. Cells were infected with lentivirus with 0.8 μg/ml polybrene, selected with puromycin (1 μg/ml, InvivoGen), blasticidin (2 μg/ml, InvivoGen) or hygromycin B (2 μg/ml, InvivoGen) for 3 days and then single cells were sorted into 96-well plates. Single cells were maintained in DMEM with 10% (v/v) FBS and 1% (v/v) penicillin/streptomycin at 37° C. in an incubator with 20% O2 and 5% CO2 for 3-4 weeks and each colony was verified by western blot to confirm the target gene deletion. To generate cell lines with DOX-inducible CRISPR-Cas9-mediated gene deletion, cells were infected with lentivirus, selected with puromycin (1 μg/ml, InvivoGen), blasticidin (2 μg/ml, InvivoGen) or hygromycin B (2 μg/ml, InvivoGen) for 2 days and then single cells were sorted into 96-well plates. Once cell lines were established, 1 μg/ml of DOX (Sigma-Aldrich) was added to the media to induce target gene deletion for 48 hours after selection; then cells were cultured in DOX-free media for subsequent analyses.
as §3, §4

[6] = tested on: GPX4^high HT-1080 cells; test: Cell viability / cell death (ferroptosis) in HT-1080 cells; type: cell-based, human; conditions: 24 hours; for protection against GPX4 inhibition (RSL3 or ML162)-induced ferroptosis: DHODH WT, pretreatment 10 μM
Procedure: Briefly, cells were seeded onto 96-well plates at a density of 2×10^4 per well. The next day, cells were treated with GPX4 or DHODH inhibitors for 4 hours. Subsequently, cells exposed to 10 μl CCK-8 reagent (100 μl medium per well) for 1 hour at 37° C., 5% CO2 in an incubator. The absorbance at a wavelength of 450 nm was determined using a FLUOstar Omega microplate reader (BMG Labtech).
as §4, with “For” for “Cell death was measured by propidium iodide (Roche) staining using a flow cytometer, as previously described (Dai, F., et al., Proc Natl Acad Sci USA 114, 3192-3197 (2017); Zhang, Y., et al., Cancer Res 80, 2243-2256 (2020)). For”

[7] = tested on: DHODH KO HT-1080 cells; test: Mitochondrial lipid peroxidation (mito-BODIPY) in DHODH KO HT-1080 cells; type: cell-based, human; conditions: pretreatment 10 μM, 24 hours

Compound	intracellular levels upon supplementation [1]	effect of supplementation on cellular sensitivity to GPX4 inhibition (RSL3) [2]	protection against GPX4 inhibition (RSL3 or ML162)-induced ferroptosis [6]	protection against GPX4 inhibition (RSL3 or ML162)-induced ferroptosis [5]	suppression of GPX4 inhibitor-induced mitochondrial lipid peroxidation [7]	other results
NC(=O)N[C@@H](CC(=O)O)C(=O)O [C-Asp, N-Carbamoyl-L-aspartate]	only moderately increased	did not affect ferroptosis sensitivity	–	–	–	cell permeability [1]: largely impermeable to cells
O=C1CC(C(=O)O)NC(=O)N1 (stereo not shown) [DHO, dihydroorotate]	drastically increased	protected cells from	–	–	–	protecting (DHO) or sensitizing (OA) effect in GPX4^low versus GPX4^high cell lines [3]: much more pronounced
COc1ccc(N(C(=O)CCl)C(C(=O)NCCc2ccccc2)c2cccs2)cc1Cl (stereo not shown) [ML162]	–	–	–	–	–	C-Asp level [4]: marked depletion; uridine level [4]: concomitant accumulation; sensitization by DHODH deletion to compound-induced lipid peroxidation and ferroptosis ([5]; uridine-supplemented conditions): markedly sensitized
O=C(O)c1cc(=O)[nH]c(=O)[nH]1 [OA, orotate]	drastically increased	sensitized cells to	–	–	–	protecting (DHO) or sensitizing (OA) effect in GPX4^low versus GPX4^high cell lines [3]: much more pronounced
CC1(C)CCCC(C)(C)N1[O] [TEMPO, 2,2,6,6-tetramethyl-1-piperidinyloxy]	–	–	rescued	rescued	could be suppressed	–
CC1(C)CC(NC(=O)C[P+](c2ccccc2)(c2ccccc2)c2ccccc2)CC(C)(C)N1[O] [mito-TEMPO, 2-(2,2,6,6-tetramethylpiperidin-1-oxyl-4-ylamino)-2-oxoethyl) triphenylphosphonium chloride]	–	–	–	provided substantial protection	could be suppressed	–
COC1=C(OC)C(=O)C(CCCCCCCCCC[P+](c2ccccc2)(c2ccccc2)c2ccccc2)=C(C)C1=O [mitoQ, [10-(4,5-dimethoxy-2-methyl-3,6-dioxo-1,4-cyclohexadien-1-yl)decyl] triphenyl-phosphonium, monomethanesulfonate]	–	–	provided limited protection	–	–	–
COc1c(O)c(C)c(CCCCCCCCCC[P+](c2ccccc2)(c2ccccc2)c2ccccc2)c(O)c1OC.CS(=O)(=O)[O-] [mitoQH2, [10-(2,5-dihydroxy-3,4-dimethoxy-6-methylphenyl)decyl] triphenyl-phosphonium, monomethanesulfonate]	–	–	provided limited protection	significantly protected	significantly protected	–
N-benzyloxycarbonyl-val-ala-asp(o-me) fluoromethyl ketone [Z-VAD-FMK]	–	–	–	–	–	rescue of DHODH inhibition-induced cell death ([6]; BQR, pretreatment Lip-1 or ZVF 10 μM): the opposite was observed
